Measurements reported in patent US4605739A, “Benzoyl indolecarboxylates” (Kowa Co., Ltd., priority 1983, dated 1986).

Target: chymotrypsin (Bos taurus, UniProt P00766)
Test: chymotrypsin inhibitory effect (procedure of Muramatsu et al; acetyl-L-tyrosine ethyl ester substrate, Hestrin method)
Type: biochemical
Conditions: 10 min preincubation, pH 8.0 Tris-HCl, 37° C., 30 min, absorbance 530 nm, read-out: Inhibitory Activity, 50% Inhibitory Concentration
Experimental: Some selected compounds of this invention were tested with respect to their chymotrypsin inhibitory effects.
The tests were conducted in accordance with the procedure of Muramatsu et al [The Journal of Biochemistry, 62, 408 (1967)]. A mixture was prepared which was made up of 0.1 ml of a dimethylsulfoxide solution of each test compound, 0.1 ml of water and 0.1 ml of a buffer solution containing 10 μg/ml of chymotrypsin (0.1M Tris-HCl buffer, pH 8.0). The mixture was incubated for 10 minutes, followed by addition of 0.2 ml of a buffer solution containing 25 mM of an ethyl ester of acetyl-L-tyrosine. The resulting mixture was reacted at 37° C. for 30 minutes. The remaining substrate was caused to develop a color by the Hestrin method, whereupon its absorbance was measured at 530 nm. For comparative purposes, use was made of tosylphenylalanine chloromethyl ketone (TPCK) which is known as a good inhibitor for chymotrypsin.

| Structure (SMILES) | IC50 |
| --- | --- |
| Cc1[nH]c2ccccc2c1CC(=O)Oc1ccc(C(=O)N2CCN(C(C)C)CC2)cc1 [Example 10] | 700 nM |
| Cc1ccc(S(=O)(=O)NC(Cc2ccccc2)C(=O)CCl)cc1 (centres unmarked) [TPCK, tosylphenylalanine chloromethyl ketone, reference compound] | 500000 nM |
| Cc1ccc2[nH]c(C)c(CC(=O)Oc3ccc(C(=O)N4CCN(C(C)C)CC4)cc3)c2c1 [Example 4] | 500 nM |
| CC(C)N1CCN(C(=O)c2ccc(OC(=O)Cc3c[nH]c4ccccc34)cc2)CC1 [Example 14] | 6000 nM |
| CCCCc1ccc2[nH]c(C)c(CC(=O)Oc3ccc(C(=O)N4CCN(C(C)C)CC4)cc3)c2c1 [Example 5] | 600 nM |

Now those with a lower IC50, led by results:

| IC50 | Structure (SMILES) |
| --- | --- |
| 80 nM | COc1ccc2[nH]cc(CC(=O)Oc3ccc(C(=O)N4CCN(C(C)C)CC4)cc3)c2c1 [Example 7] |
| 400 nM | COc1ccc2[nH]c(C)c(CC(=O)Oc3ccc(C(=O)N4CCN(C(C)C)CC4)cc3)c2c1 [Example 3] |
| 300 nM | COc1ccc2c(c1)c(CC(=O)Oc1ccc(C(=O)N3CCN(C(C)C)CC3)cc1)c(C)n2C [Example 2] |
